ChEMBL document CHEMBL4765227, “Hit to lead optimization of a series of N-[4-(1,3-benzothiazol-2-yl)phenyl]acetamides as monoacylglycerol lipase inhibitors with potential anticancer activity” (Eur J Med Chem, 2016)

Experiments:
Type in all cases: functional
Settings in all cases: read-out: GI
CCRF-CEM = test: Growth inhibition of human CCRF-CEM cells at 10 uM incubated for 48 hrs by sulforhodamine B assay relative to control
HL-60(TB) = test: Growth inhibition of human HL-60(TB) cells at 10 uM incubated for 48 hrs by sulforhodamine B assay relative to control
MOLT-4 = test: Growth inhibition of human MOLT-4 cells at 10 uM incubated for 48 hrs by sulforhodamine B assay relative to control
RPMI-8226 = test: Growth inhibition of human RPMI-8226 cells at 10 uM incubated for 48 hrs by sulforhodamine B assay relative to control
SR = test: Growth inhibition of human SR cells at 10 uM incubated for 48 hrs by sulforhodamine B assay relative to control
A549 = test: Growth inhibition of human A549/ATCC cells at 10 uM incubated for 48 hrs by sulforhodamine B assay relative to control
HOP-62 = test: Growth inhibition of human HOP-62 cells at 10 uM incubated for 48 hrs by sulforhodamine B assay relative to control
HOP-92 = test: Growth inhibition of human HOP-92 cells at 10 uM incubated for 48 hrs by sulforhodamine B assay relative to control
NCI-H226 = test: Growth inhibition of human NCI-H226 cells at 10 uM incubated for 48 hrs by sulforhodamine B assay relative to control
COLO 205 = test: Growth inhibition of human COLO 205 cells at 10 uM incubated for 48 hrs by sulforhodamine B assay relative to control
HCC 2998 = test: Growth inhibition of human HCC 2998 cells at 10 uM incubated for 48 hrs by sulforhodamine B assay relative to control
HCT-116 = test: Growth inhibition of human HCT-116 cells at 10 uM incubated for 48 hrs by sulforhodamine B assay relative to control
HCT-15 = test: Growth inhibition of human HCT-15 cells at 10 uM incubated for 48 hrs by sulforhodamine B assay relative to control
HT-29 = test: Growth inhibition of human HT-29 cells at 10 uM incubated for 48 hrs by sulforhodamine B assay relative to control
SF-268 = test: Growth inhibition of human SF-268 cells at 10 uM incubated for 48 hrs by sulforhodamine B assay relative to control
SF-295 = test: Growth inhibition of human SF-295 cells at 10 uM incubated for 48 hrs by sulforhodamine B assay relative to control
SNB-19 = test: Growth inhibition of human SNB-19 cells at 10 uM incubated for 48 hrs by sulforhodamine B assay relative to control
SNB-75 = test: Growth inhibition of human SNB-75 cells at 10 uM incubated for 48 hrs by sulforhodamine B assay relative to control
U-251 = test: Growth inhibition of human U-251 cells at 10 uM incubated for 48 hrs by sulforhodamine B assay relative to control
LOX IMVI = test: Growth inhibition of human LOX IMVI cells at 10 uM incubated for 48 hrs by sulforhodamine B assay relative to control
Malme-3M = test: Growth inhibition of human Malme-3M cells at 10 uM incubated for 48 hrs by sulforhodamine B assay relative to control
M14 = test: Growth inhibition of human M14 cells at 10 uM incubated for 48 hrs by sulforhodamine B assay relative to control
SK-MEL-28 = test: Growth inhibition of human SK-MEL-28 cells at 10 uM incubated for 48 hrs by sulforhodamine B assay relative to control
SK-MEL-5 = test: Growth inhibition of human SK-MEL-5 cells at 10 uM incubated for 48 hrs by sulforhodamine B assay relative to control
UACC-257 = test: Growth inhibition of human UACC-257 cells at 10 uM incubated for 48 hrs by sulforhodamine B assay relative to control
UACC-62 = test: Growth inhibition of human UACC-62 cells at 10 uM incubated for 48 hrs by sulforhodamine B assay relative to control
IGROV-1 = test: Growth inhibition of human IGROV-1 cells at 10 uM incubated for 48 hrs by sulforhodamine B assay relative to control
OVCAR-3 = test: Growth inhibition of human OVCAR-3 cells at 10 uM incubated for 48 hrs by sulforhodamine B assay relative to control
OVCAR-4 = test: Growth inhibition of human OVCAR-4 cells at 10 uM incubated for 48 hrs by sulforhodamine B assay relative to control
OVCAR-5 = test: Growth inhibition of human OVCAR-5 cells at 10 uM incubated for 48 hrs by sulforhodamine B assay relative to control
NCI/ADR-RES = test: Growth inhibition of human NCI/ADR-RES cells at 10 uM incubated for 48 hrs by sulforhodamine B assay relative to control
SK-OV-3 = test: Growth inhibition of human SK-OV-3 cells at 10 uM incubated for 48 hrs by sulforhodamine B assay relative to control
786-0 = test: Growth inhibition of human 786-0 cells at 10 uM incubated for 48 hrs by sulforhodamine B assay relative to control
ACHN = test: Growth inhibition of human ACHN cells at 10 uM incubated for 48 hrs by sulforhodamine B assay relative to control
CAKI-1 = test: Growth inhibition of human CAKI-1 cells at 10 uM incubated for 48 hrs by sulforhodamine B assay relative to control
RXF 393 = test: Growth inhibition of human RXF 393 cells at 10 uM incubated for 48 hrs by sulforhodamine B assay relative to control
TK-10 = test: Growth inhibition of human TK-10 cells at 10 uM incubated for 48 hrs by sulforhodamine B assay relative to control
PC-3 = test: Growth inhibition of human PC-3 cells at 10 uM incubated for 48 hrs by sulforhodamine B assay relative to control
DU-145 = test: Growth inhibition of human DU-145 cells at 10 uM incubated for 48 hrs by sulforhodamine B assay relative to control
MCF7 = test: Growth inhibition of human MCF7 cells at 10 uM incubated for 48 hrs by sulforhodamine B assay relative to control
Hs-578T = test: Growth inhibition of human Hs-578T cells at 10 uM incubated for 48 hrs by sulforhodamine B assay relative to control
BT-549 = test: Growth inhibition of human BT-549 cells at 10 uM incubated for 48 hrs by sulforhodamine B assay relative to control
T47D = test: Growth inhibition of human T47D cells at 10 uM incubated for 48 hrs by sulforhodamine B assay relative to control
MDA-MB-468 = test: Growth inhibition of human MDA-MB-468 cells at 10 uM incubated for 48 hrs by sulforhodamine B assay relative to control

O=C(CNC1CCCCC1)Nc1ccc(-c2nc3ccccc3s2)cc1
inhibition of growth at 10 µM (CCRF-CEM): 22.7%
inhibition of growth at 10 µM (HL-60(TB)): 33.2%
inhibition of growth at 10 µM (MOLT-4): 45.9%
inhibition of growth at 10 µM (RPMI-8226): 22.4%
inhibition of growth at 10 µM (SR): 90.3%
inhibition of growth at 10 µM (A549): 12%
inhibition of growth at 10 µM (HOP-62): 14.8%
inhibition of growth at 10 µM (HOP-92): 51.2%
inhibition of growth at 10 µM (NCI-H226): 19.7%
inhibition of growth at 10 µM (COLO 205): 4.58%
inhibition of growth at 10 µM (HCC 2998): 12.7%
inhibition of growth at 10 µM (HCT-116): 23%
inhibition of growth at 10 µM (HCT-15): 37.1%
inhibition of growth at 10 µM (HT-29): 37.7%
inhibition of growth at 10 µM (SF-268): 21.6%
inhibition of growth at 10 µM (SF-295): 14.1%
inhibition of growth at 10 µM (SNB-19): 9.04%
inhibition of growth at 10 µM (SNB-75): 32.7%
inhibition of growth at 10 µM (U-251): 34.9%
inhibition of growth at 10 µM (LOX IMVI): 26.1%
inhibition of growth at 10 µM (Malme-3M): -5.44%
inhibition of growth at 10 µM (M14): 10.6%
inhibition of growth at 10 µM (SK-MEL-28): 4.77%
inhibition of growth at 10 µM (SK-MEL-5): 9.16%
inhibition of growth at 10 µM (UACC-257): -4.65%
inhibition of growth at 10 µM (UACC-62): 3.76%
inhibition of growth at 10 µM (IGROV-1): -0.35%
inhibition of growth at 10 µM (OVCAR-3): 5.98%
inhibition of growth at 10 µM (OVCAR-4): 15.6%
inhibition of growth at 10 µM (OVCAR-5): 5.32%
inhibition of growth at 10 µM (NCI/ADR-RES): 11%
inhibition of growth at 10 µM (SK-OV-3): 9.23%
inhibition of growth at 10 µM (786-0): 29.4%
inhibition of growth at 10 µM (ACHN): 0.89%
inhibition of growth at 10 µM (CAKI-1): 14%
inhibition of growth at 10 µM (RXF 393): 31.5%
inhibition of growth at 10 µM (TK-10): -2.86%
inhibition of growth at 10 µM (PC-3): 20.3%
inhibition of growth at 10 µM (DU-145): 10.7%
inhibition of growth at 10 µM (MCF7): 72%
inhibition of growth at 10 µM (Hs-578T): 15.8%
inhibition of growth at 10 µM (BT-549): 12.4%
inhibition of growth at 10 µM (T47D): 30.9%
inhibition of growth at 10 µM (MDA-MB-468): 64.1%

O=C(CNCc1ccccc1)Nc1ccc(-c2nc3ccccc3s2)cc1
inhibition of growth at 10 µM (CCRF-CEM): 9.29%
inhibition of growth at 10 µM (HL-60(TB)): 3.9%
inhibition of growth at 10 µM (MOLT-4): 12%
inhibition of growth at 10 µM (RPMI-8226): 10.1%
inhibition of growth at 10 µM (SR): 21.3%
inhibition of growth at 10 µM (A549): 22.7%
inhibition of growth at 10 µM (HOP-62): -6.53%
inhibition of growth at 10 µM (HOP-92): 15.1%
inhibition of growth at 10 µM (NCI-H226): 15.8%
inhibition of growth at 10 µM (COLO 205): -11.5%
inhibition of growth at 10 µM (HCC 2998): 9.91%
inhibition of growth at 10 µM (HCT-116): 5.15%
inhibition of growth at 10 µM (HCT-15): 8.74%
inhibition of growth at 10 µM (HT-29): 1.86%
inhibition of growth at 10 µM (SF-268): 3.99%
inhibition of growth at 10 µM (SF-295): 6.24%
inhibition of growth at 10 µM (SNB-19): 2.46%
inhibition of growth at 10 µM (SNB-75): 18%
inhibition of growth at 10 µM (U-251): 18.6%
inhibition of growth at 10 µM (LOX IMVI): 3.99%
inhibition of growth at 10 µM (Malme-3M): -6.22%
inhibition of growth at 10 µM (M14): 3.6%
inhibition of growth at 10 µM (SK-MEL-28): 2.7%
inhibition of growth at 10 µM (SK-MEL-5): 5.63%
inhibition of growth at 10 µM (UACC-257): 4.97%
inhibition of growth at 10 µM (UACC-62): 7.61%
inhibition of growth at 10 µM (IGROV-1): -2.9%
inhibition of growth at 10 µM (OVCAR-3): 8.88%
inhibition of growth at 10 µM (OVCAR-4): 2.46%
inhibition of growth at 10 µM (OVCAR-5): 12.3%
inhibition of growth at 10 µM (NCI/ADR-RES): -0.82%
inhibition of growth at 10 µM (SK-OV-3): -18.4%
inhibition of growth at 10 µM (786-0): 8.55%
inhibition of growth at 10 µM (ACHN): 0.1%
inhibition of growth at 10 µM (CAKI-1): 9.29%
inhibition of growth at 10 µM (RXF 393): -3.76%
inhibition of growth at 10 µM (TK-10): -12%
inhibition of growth at 10 µM (PC-3): 19.1%
inhibition of growth at 10 µM (DU-145): -7.09%
inhibition of growth at 10 µM (MCF7): 61.6%
inhibition of growth at 10 µM (Hs-578T): -4.26%
inhibition of growth at 10 µM (BT-549): 1.91%
inhibition of growth at 10 µM (T47D): 11.6%
inhibition of growth at 10 µM (MDA-MB-468): 73.3%
